A word on the inhibition: it is the relative decrease from the control value, in per cent.

From patent publication US8063071B2 (GlaxoSmithKline, LLC, priority 2007, dated 2011) come the findings set out here.

The target of experiment [1] is T1, Recombinant human IKKβ (residues 1-737) (Homo sapiens, UniProt O14920).
T1 construct: Recombinant human IKKβ (residues 1-737); GST (C); made in house
T1 sequence (O14920 1-737): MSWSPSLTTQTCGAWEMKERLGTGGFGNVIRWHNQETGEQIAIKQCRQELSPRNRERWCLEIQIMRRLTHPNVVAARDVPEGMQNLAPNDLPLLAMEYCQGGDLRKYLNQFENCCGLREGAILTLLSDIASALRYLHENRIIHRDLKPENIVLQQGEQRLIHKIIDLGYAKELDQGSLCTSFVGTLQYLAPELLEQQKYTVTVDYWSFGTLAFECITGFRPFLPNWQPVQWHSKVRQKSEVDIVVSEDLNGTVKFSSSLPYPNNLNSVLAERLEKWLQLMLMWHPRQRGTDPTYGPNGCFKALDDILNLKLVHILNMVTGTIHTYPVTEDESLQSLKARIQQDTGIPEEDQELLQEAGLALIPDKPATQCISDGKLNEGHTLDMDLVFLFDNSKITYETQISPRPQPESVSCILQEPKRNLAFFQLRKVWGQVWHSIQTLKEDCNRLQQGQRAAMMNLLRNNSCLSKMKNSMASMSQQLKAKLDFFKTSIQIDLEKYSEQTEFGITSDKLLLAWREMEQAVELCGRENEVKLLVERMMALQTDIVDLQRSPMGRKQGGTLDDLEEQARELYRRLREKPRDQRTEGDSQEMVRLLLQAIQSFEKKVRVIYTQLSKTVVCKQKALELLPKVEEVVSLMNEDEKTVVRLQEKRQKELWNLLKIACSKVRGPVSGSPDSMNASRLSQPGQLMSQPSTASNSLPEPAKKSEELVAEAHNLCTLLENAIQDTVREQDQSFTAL
Kind of experiment: IKK2 assay (TR-FRET). The class given is biochemical. The following applies: ATP 1 μM final, read-out: pIC50 against IKK2 (converted). In outline: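 Baculovirus-expressed C-terminal GST-tagged IKKβ (0.5-5 nM final) in HEPES pH 7.4, MgCl2, CHAPS, DTT, BSA with 1.7% DMSO; 25 nM GST-IB substrate and 1 μM ATP, 15 min at room temperature. EDTA stop; phospho-Ser32/36 detected by Eu-antibody/APC-anti-GST TR-FRET, 665/620 nm ratio.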

Experiment [2] relates to human monocyte stimulated cytokine production (TNF-α). Kind of experiment: Monocyte assay (LPS-stimulated TNF-α production). The experiment is classed as cell-based. To be noted: for inhibition at 0.3 µM: read-out: inhibition at 300 nM in the monocyte assay; for IC50: 24 h, 200 ng/mL LPS, TNF-α by ELISA. A digest of the protocol: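 Human CD14+ monocytes were purified from blood and plated at 1×10^6 cells/mL in RPMI 1640 with 10% FBS. Compound was added 30 min before stimulation with 200 ng/mL LPS (0.1% DMSO final), followed by 24 hrs at 37 C. Supernatant TNF-α was measured by ELISA, and viability by trypan blue exclusion.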
On the technique in general: In an ELISA, binding on a coated surface is turned into a signal by an enzyme label.

Structures can show the parent of a compound that is named as a salt.

`CCS(=O)(=O)N1CCC(c2c[nH]c3c(C(N)=O)cc(-c4csc(CN(C)CCS(=O)(=O)c5ccccc5)c4)cc23)CC1` [Example 45, 3-[1-(ethylsulfonyl)-4-piperidinyl]-5-[5-({methyl[2-(phenylsulfonyl)ethyl]amino}methyl)-3-thienyl]-1H-indole-7-carboxamide trifluoroacetate]: the IC50 in experiment [1] is at most 10 µM. For the same compound, the inhibition at 0.3 µM in experiment [2] is 0 to 60%.
As to `CCS(=O)(=O)N1CCC(c2c[nH]c3c(C(N)=O)cc(-c4csc(CN5CCCC5c5ccccc5)c4)cc23)CC1` (stereo not drawn) [Example 46, 3-[1-(ethylsulfonyl)-4-piperidinyl]-5-{5-[(2-phenyl-1-pyrrolidinyl)methyl]-3-thienyl}-1H-indole-7-carboxamide], in experiment [1], the IC50 was at most 10 µM. Further, in experiment [2], the inhibition at 0.3 µM is 0 to 60%.
For the compound `CCS(=O)(=O)N1CCC(c2c[nH]c3c(C(N)=O)cc(-c4csc(CN5CCCC5CN5CCCCC5)c4)cc23)CC1` (stereo not drawn) [Example 47, 3-[1-(ethylsulfonyl)-4-piperidinyl]-5-(5-{[2-(1-piperidinylmethyl)-1-pyrrolidinyl]methyl}-3-thienyl)-1H-indole-7-carboxamide], the IC50 in experiment [1] was at most 10 µM. Also, the inhibition at 0.3 µM in experiment [2] was in the range of 0 to 60%.
On to `CCS(=O)(=O)N1CCC(c2c[nH]c3c(C(N)=O)cc(-c4csc(CN5CCC[C@@H]5C(N)=O)c4)cc23)CC1` [Example 48, 5-(5-{[(2R)-2-(aminocarbonyl)-1-pyrrolidinyl]methyl}-3-thienyl)-3-[1-(ethylsulfonyl)-4-piperidinyl]-1H-indole-7-carboxamide], for which, in experiment [1], the IC50 is at most 10 µM. Further, the inhibition at 0.3 µM in experiment [2] lay within 0 to 60%.
For `CCS(=O)(=O)N1CCC(c2c[nH]c3c(C(N)=O)cc(-c4csc(CN5CC[C@H](N(C)C)C5)c4)cc23)CC1` [Example 49, 5-(5-{[(3S)-3-(dimethylamino)-1-pyrrolidinyl]methyl}-3-thienyl)-3-[1-(ethylsulfonyl)-4-piperidinyl]-1H-indole-7-carboxamide] the same measures were at most 10 µM and 0 to 60%.
Turning to `CCS(=O)(=O)N1CCC(c2c[nH]c3c(C(N)=O)cc(-c4cnn(CCN5CCC(N(C)C)CC5)c4)cc23)CC1` [Example 50, 5-(1-{2-[4-(dimethylamino)-1-piperidinyl]ethyl}-1H-pyrazol-4-yl)-3-[1-(ethylsulfonyl)-4-piperidinyl]-1H-indole-7-carboxamide trifluoroacetate], the values for the IC50 in experiment [1] and in experiment [2] were at most 10 µM and above 1 µM, respectively.
Regarding `CCS(=O)(=O)N1CCC(c2c[nH]c3c(C(N)=O)cc(-c4cc(CN(C)C)c5c(c4)OCC5)cc23)CC1` [Example 58, 5-{4-[(dimethylamino)methyl]-2,3-dihydro-1-benzofuran-6-yl}-3-[1-(ethylsulfonyl)-4-piperidinyl]-1H-indole-7-carboxamide], in experiment [1], the IC50 was at most 10 µM. Besides, the inhibition at 0.3 µM in experiment [2] was 0 to 60%.
The corresponding values for `CCS(=O)(=O)N1CCC(c2c[nH]c3c(C(N)=O)cc(-c4cc(CN5CCOCC5)c5c(c4)OCC5)cc23)CC1` [Example 60, 3-[1-(ethylsulfonyl)-4-piperidinyl]-5-[4-(4-morpholinylmethyl)-2,3-dihydro-1-benzofuran-6-yl]-1H-indole-7-carboxamide] are at most 10 µM and 0 to 60%.
Consider `CCS(=O)(=O)N1CCC(c2c[nH]c3c(C(N)=O)cc(-c4ccc(CNC(C)COC)s4)cc23)CC1` (stereo not drawn) [Example 61, 3-[1-(ethylsulfonyl)-4-piperidinyl]-5-[5-({[1-methyl-2-(methyloxy)ethyl]amino}methyl)-2-thienyl]-1H-indole-7-carboxamide], for which the figures for the IC50 in experiment [1] and in experiment [2] were at most 10 µM and at most 1.5 µM, respectively.
Take `CCS(=O)(=O)N1CCC(c2c[nH]c3c(C(N)=O)cc(-c4cncc(CNCCC#N)c4)cc23)CC1` [Example 62, 5-(5-{[(2-cyanoethyl)amino]methyl}-3-pyridinyl)-3-[1-(ethylsulfonyl)-4-piperidinyl]-1H-indole-7-carboxamide]: the figures for the IC50 in experiment [1] and in experiment [2] were at most 10 µM and at most 1.5 µM, respectively.
Take `CCS(=O)(=O)N1CCC(c2c[nH]c3c(C(N)=O)cc(-c4cncc(CNCC(F)(F)F)c4)cc23)CC1` [Example 63, 3-[1-(ethylsulfonyl)-4-piperidinyl]-5-(5-{[(2,2,2-trifluoroethyl)amino]methyl}-3-pyridinyl)-1H-indole-7-carboxamide]: in experiment [1], the IC50 is at most 10 µM. For the same compound, the inhibition at 0.3 µM in experiment [2] was 0 to 60%.
On to `CCS(=O)(=O)N1CCC(c2c[nH]c3c(C(N)=O)cc(-c4cccc(CN(C)C)c4)cc23)CC1` [Example 64, 5-{3-[(dimethylamino)methyl]phenyl}-3-[1-(ethylsulfonyl)-4-piperidinyl]-1H-indole-7-carboxamide], for which the values for the IC50 in experiment [1] and in experiment [2] were at most 10 µM and at most 1.5 µM, respectively.
The corresponding values for `CCN(C)Cc1cc(-c2cc(C(N)=O)c3[nH]cc(C4CCN(S(=O)(=O)CC)CC4)c3c2)cs1` [Example 65, 5-(5-{[ethyl(methyl)amino]methyl}-3-thienyl)-3-[1-(ethylsulfonyl)-4-piperidinyl]-1H-indole-7-carboxamide trifluoroacetate] are at most 10 µM and at most 1.5 µM.
Consider `CCN(CC)CCN(C)Cc1cc(-c2cc(C(N)=O)c3[nH]cc(C4CCN(S(=O)(=O)CC)CC4)c3c2)cs1` [Example 66, 5-(5-{[[2-(diethylamino)ethyl](methyl)amino]methyl}-3-thienyl)-3-[1-(ethylsulfonyl)-4-piperidinyl]-1H-indole-7-carboxamide trifluoroacetate], for which the IC50 in experiment [1] was at most 10 µM; in experiment [2], at most 1.5 µM.
Consider `CCCCN(C)Cc1cc(-c2cc(C(N)=O)c3[nH]cc(C4CCN(S(=O)(=O)CC)CC4)c3c2)cs1` [Example 67, 5-(5-{[butyl(methyl)amino]methyl}-3-thienyl)-3-[1-(ethylsulfonyl)-4-piperidinyl]-1H-indole-7-carboxamide trifluoroacetate], for which the IC50 in experiment [1] was at most 10 µM; in experiment [2], at most 1.5 µM.
As to `CCCN(C)Cc1cc(-c2cc(C(N)=O)c3[nH]cc(C4CCN(S(=O)(=O)CC)CC4)c3c2)cs1` [Example 68, 3-[1-(ethylsulfonyl)-4-piperidinyl]-5-(5-{[methyl(propyl)amino]methyl}-3-thienyl)-1H-indole-7-carboxamide trifluoroacetate], the IC50 in experiment [1] was at most 10 µM; in experiment [2], at most 1.5 µM.
Regarding `CCS(=O)(=O)N1CCC(c2c[nH]c3c(C(N)=O)cc(-c4csc(CN(C)CCN(C)C)c4)cc23)CC1` [Example 69, 5-(5-{[[2-(dimethylamino)ethyl](methyl)amino]methyl}-3-thienyl)-3-[1-(ethylsulfonyl)-4-piperidinyl]-1H-indole-7-carboxamide trifluoroacetate], the IC50 is at most 10 µM in experiment [1] and at most 1.5 µM in experiment [2].
Turning to `CCS(=O)(=O)N1CCC(c2c[nH]c3c(C(N)=O)cc(-c4csc(CN(C)CCCN(C)C)c4)cc23)CC1` [Example 70, 5-(5-{[[3-(dimethylamino)propyl](methyl)amino]methyl}-3-thienyl)-3-[1-(ethylsulfonyl)-4-piperidinyl]-1H-indole-7-carboxamide trifluoroacetate], the results for the IC50 in experiment [1] and in experiment [2] were at most 10 µM and above 1 µM, respectively.
Consider `CCS(=O)(=O)N1CCC(c2c[nH]c3c(C(N)=O)cc(-c4csc(CN(C)C5CCCC5)c4)cc23)CC1` [Example 71, 5-(5-{[cyclopentyl(methyl)amino]methyl}-3-thienyl)-3-[1-(ethylsulfonyl)-4-piperidinyl]-1H-indole-7-carboxamide trifluoroacetate], for which the IC50 in experiment [1] is at most 10 µM; in experiment [2] it was at most 1.5 µM.
Turning to `CCCCCN(C)Cc1cc(-c2cc(C(N)=O)c3[nH]cc(C4CCN(S(=O)(=O)CC)CC4)c3c2)cs1` [Example 72, 3-[1-(ethylsulfonyl)-4-piperidinyl]-5-(5-{[methyl(pentyl)amino]methyl}-3-thienyl)-1H-indole-7-carboxamide trifluoroacetate], the IC50 in experiment [1] is at most 10 µM; in experiment [2] it was at most 1.5 µM.
On to `CCS(=O)(=O)N1CCC(c2c[nH]c3c(C(N)=O)cc(-c4csc(CN(C)CC(C)C)c4)cc23)CC1` [Example 73, 3-[1-(ethylsulfonyl)-4-piperidinyl]-5-(5-{[methyl(2-methylpropyl)amino]methyl}-3-thienyl)-1H-indole-7-carboxamide trifluoroacetate], for which the IC50 in experiment [1] was at most 10 µM; in experiment [2], at most 1.5 µM.
